Reference: US20200253979A1, “THERAPEUTIC METHODS RELATING TO HSP90 INHIBITORS” (AI Therapeutics, Inc., priority 2017, published 2020)

Assays:
[1] = tested on: H1975 cells; assay: 7-AAD / annexin V cell death staining; type: cell-based; settings: 0.7 μM, 72 hours
Experimental: To verify the mechanism of the loss of cell viability, H1975 cells were treated with MPC-0767 (0.7 μM) for 72 hours. After this time, cells were stained with 7-amino-actinomycin D (7-AAD) and annexin V, markers of cell membrane integrity and of apoptosis, respectively.

[2] = tested on: cell surface FLT3 in MOLM-13 cells; assay: Cell surface FLT3 by flow cytometry; type: cell-based, human; settings: 24 hours
Experimental: To determine whether MPC-0767 can promote the degradation of FLT3-ITD and abolish downstream signaling, MV-4-11 and MOLM-13 cells were treated with vehicle or MPC-0767 (1 μM) for 24 hours. Cells were harvested for flow cytometry to assess cell surface FLT3 protein abundance. In addition, the measurement of a key phosphorylation site of S6 (phospho-S6) was used as a marker for oncogenic FLT3-ITD signaling (Zimmerman et al., Blood. 2013 122(22): 3607-3615). Indeed, in both MV-4-11 and MOLM-13 cells treated with MPC-0767 there was a >65% reduction in cell surface FLT3 (FIGS. 10A and 10B, respectively) and >70% reduction in phospho-S6 (FIGS. 10C and 10D, respectively).
(§1) We next explored whether the synergistic activity of MPC-0767 and ATO was due to a more complete abrogation of FLT3-ITD oncogenic signaling. […] After this time cells were harvested for the assessment of cell surface FLT3 expression by flow cytometry. To additionally measure the effects of abrogating FLT3, we assessed phospho-ERK (pERK) and phospho-S6 (pS6), as these are two known downstream effectors.

[3] = tested on: phospho-ERK (pERK) in MOLM-13 cells; assay: Phospho-ERK level; type: cell-based, human; settings: MPC-0767 800 nM, ATO 625 nM or combination, 24 hours
Description: as §1

[4] = tested on: PD-L1 on primary AML patient samples; assay: PD-L1 cell surface expression by flow cytometry; type: cell-based, human; settings: 24 hours
Experimental: To study whether MPC-0767 blocks IFN-γ-induced PD-L1 expression, six AML patient samples harboring FLT3 WT (n=2) or FLT3-ITD (n=4) were treated with human IFN-γ (50 ng/ml) alone, MPC-0767 (1 μM) alone or the combination of the two for 24 hours. Cells were then harvested to assess PD-L1 cell surface expression by flow cytometry. Cells were also stained with the AML blast markers CD34 or CD45 (to gate on the blast population) and a viability stain to gate on viable cells.

[5] = tested on: TUR cells; assay: CellTiter-Glo cell viability (single agent and combination); type: cell-based; settings: 72 h
[6] = tested on: OCIAML3 cells; assay: CellTiter-Glo cell viability; type: cell-based; settings: OCIAML3, 72 h
[7] = tested on: THP1 (THP-1) cells; assay: CellTiter-Glo cell viability (single agent and combination); type: cell-based; settings: THP1, 72 h
[8] = tested on: OCI-AML2 AML cell line; assay: In vitro T-cell-mediated killing assay (active caspase-3); type: cell-based; settings: MPC-0767 2 μM overnight, then pp65 enriched CD8+ T cells 4 hours
Experimental: The ability of MPC-0767 to increase T cell killing was determined in an in vitro T-cell-mediated killing assay. The OCI-AML2 AML cell line was labeled with the cell staining dye CFSE and treated overnight with MPC-0767 (2 μM) and human cytomegalovirus pp65495-503 peptide. […] After 4 hours of co-culture, cells were harvested, fixed, permeabilized, and stained for the active form of caspase-3 as a direct read-out of apoptotic cell death.
The CI is a quantitative measure used to determine whether the combined effect of a drug pair is synergistic, additive, or antagonistic. The CI is calculated as CI=(E1+E2)/E12, where E12 is a normalized biological response (e.g., % Caspase-3+ cells) for the combination of Drug A and Drug B, and E1 and E2 are the response measured for each single drug treatment, respectively. CI values less than 1 indicate synergy, with the magnitude of the effect indicated by how much less than 1 the synergy score is. A more detailed mathematical treatment of this relationship is described in Shin et al. 2018.

[9] = tested on: PD-L1 on tumor infiltrating leukocytes (CD45+, CD3−); assay: PD-L1 on tumor infiltrating leukocytes in MC38 tumors; type: in vivo, mouse; settings: 150 mg/kg QD×7
Experimental: To test if MPC-0767 may induce an anti-tumor immune response in addition to direct cytotoxic activity, down regulation of PD-Ll and the effector/regulatory T-cell ratio was measured in the same MC38 syngeneic model. On day 21, when the average tumor volume was 372 mm^3 in size, a second group of mice (n=6) was treated with 150 mg/kg MPC-0767 QD×7. One day post the last dose (day 28 post inoculation) tumors were harvested from the vehicle and 150 mg/kg MPC-0767 QD×7 group. Tumor infiltrating leukocytes (CD45^+, CD3^−) within the dissociated tumors were analyzed for PD-L1 expression by flow cytometry.

[10] = tested on: PD-L1 on THP-1 cells; assay: PD-L1 expression on THP-1 cells by flow cytometry; type: cell-based; settings: IFNγ overnight with MPC-0767 1 μM or 2 uM
Description: FIG. 29A-D: MPC-0767 repression of PD-L1 expression increases T cell activation. Bar graphs show activation of Jurkat reporter cells with anti-CD3 (A) and PD-L1-dependent inhibition of T cell activation after IFNγ treatment (B). Bars in A&B represent the mean +/− SD of triplicate wells and are representative of three independent experiments. […] Bars in C&D represent the mean +/− SD of three independent experiments.
We next determined whether MPC-0767 reduction of PD-L1 could increase T cell stimulation similar to anti-PD-L1 blocking antibodies. THP-1 cells were treated overnight with IFNγ in the presence or absence of MPC-0767 (1 μM or 2 uM). THP-1 cells were washed and a portion saved for flow cytometry analysis of PD-L1 expression. The remaining cells were incubated with Jurkat reporter cells and anti-CD3 (10 ng/ml) for 6 hours.

[11] = tested on: ML2 cells; assay: CellTiter-Glo cell viability (single agent and combination)
Experimental: To determine whether MPC-0767 is efficacious against non-FLT3-ITD AML cells, we tested a panel of FLT3-wild type (FLT3-WT) AML cell lines and primary AML blasts for sensitivity to MPC-0767. Cells were treated with MPC-0767 for 72 hours before determining cell viability using the CellTiter-Glo® assay. […] To test whether the combination of MPC-0767 was synergistic with ATO, we tested a panel of AML cell lines. The cell lines include those harboring FLT3-ITD (MOLM-13, MOLM-14 and MV-4-11) or FLT3 WT (ME-1, THP-1, OCI-AML-2, HL60, NOMO-1, TUR and ML-2).

[12] = tested on: MOLM-13 FLT3-ITD AML cell line; assay: Systemic survival xenograft study, MPC-0767 with 5′azacitidine; settings: single agents: MPC-0767 75 mg/kg p.o.; 5′azacitidine 2 mg/kg QD×4 i.p.; vs vehicle
Experimental: A systemic survival xenograft study was performed using the MOLM-13 FLT3-ITD harboring AML cell line.
Before tumor cell inoculation, NOD/SCID mice were pre-treated for 2 days with a daily intraperitoneal injection of 100 mg/kg cyclophosphamide to facilitate engraftment of the human MOLM-13 tumor cells. After the injection of cyclophosphamide, the animals were allowed to recover for 24 hours prior to inoculation with human MOLM-13 tumor cells. Each mouse was then inoculated with 1×10^7 MOLM-13 cells in 100 μL PBS via intravenous tail vein injection. Mice were next randomized into 4 groups of 6 mice each. […] Viability and body weight loss were monitored daily.

C[C@H](N)C(=O)O[C@@H](C)C(=O)N1CCC(CCn2c(Sc3cc4c(cc3Br)OCO4)nc3c(N)ncnc32)CC1 [MPC-0767]
percentage of cells displaying markers of cell death [1]: increase | percentage of viable cells (7-AAD negative and annexin V negative) [1]: decrease | reduction in cell surface FLT3 ([2]; MOLM-13, 1 μM): > 65% | FLT3 level (cell surface) ([2]; MOLM-13, MPC-0767 800 nM, ATO 625 nM or combination): reduced | pERK level [3]: mildly reduced | basal PD-L1 cell surface expression ([4]; MPC-0767 1 μM alone): did not significantly reduce basal PD-L1 cell surface expression | IFN-γ-induced PD-L1 cell surface expression ([4]; MPC-0767 1 μM with IFN-γ 50 ng/ml, P=0.04): significantly reduced the IFN-γ-induced PD-L1 cell surface expression | EC50 [5]: 550 nM | MPC-0767 Sensitivity [5]: Sensitive (cell lines having EC50 values below 1 μM were considered to be sensitive) | EC50 ([6]; Homo sapiens, OCI-AML-3): 1810 nM | MPC-0767 Sensitivity [6]: Resistant (EC50 values above 1 μM considered resistant) | EC50 ([7]; Homo sapiens, THP-1): > 10000 nM | MPC-0767 Sensitivity [7]: Resistant (EC50 values above 1 μM considered resistant) | Combination Index (CI) for apoptotic (active caspase-3+) cells [8]: 0.53 | PD-L1 expression on tumor infiltrating leukocytes [9]: significant reduction of PD-L1 | PD-L1 expression on THP-1 cells [10]: dose-dependently reduced PD-L1 expression | EC50 ([11]; Homo sapiens, ML-2, 72 h): 1030 nM | MPC-0767 Sensitivity ([11]; ML2, 72 h): Resistant (EC50 values above 1 μM considered resistant) | increase in median survival [12]: 5.5 days
